Article PMC13338763, “Harnessing albumin as a carrier for the delivery of anti-HIV drugs to the lymphatic system” (Acta biomaterialia, 2025)
In brackets after ≈: the same amount, converted by molar mass.

Columns and labels:
Aqueous solubility = assay type: physicochemical; settings: water
HIV-WT virus = assay: Drug susceptibility assay (luciferase reporter in TZM-bl cells); assay type: cell-based, human immunodeficiency virus; settings: TZM-bl cells infected with HIV-WT, 48 h
Method: DTG and hEB-DTG luciferase expression levels were measured at different concentrations against TZM-bl reporter cell line in the presence of HIV-WT virus using the Britelite Plus Ultra-High Sensitivity Luminescence Reporter Gene Assay System (Revvity, MA, USA) according to the manufacturer’s protocol. TZM-bl cells were seeded in clear bottom white 96-well plate in a total volume of 200 μl DMEM-10 complete (+ 10 % FBS + 1 % penicillin/streptomycin) at a density of 1 × 10^4 cells/well. After 24 h, the cells were infected with the HIV-WT virus and treated with DTG and hEB-DTG in a concentration range (serial diluted 1:100) from 3 × 10^−1 mg/mL to 3 × 10^−15 mg/mL in PRF-10 complete media (+10 % FBS + 1 % penicillin/streptomycin). After 48 h of incubation, the cells were subjected to Britelite Plus Ultra-High Sensitivity Luminescence Reporter Gene Assay System (Revvity). The Britelite plus Lyophilized Substrate was reconstituted with the given Britelite Plus Reconstitution Buffer. After gently inverting and settling the solution for 5 min, 100 μL of the reconstituted Britelite Substrate solution was added to each well containing 100 μL of cells in the medium. Luminescence was measured with a Varioskan LUX Multimode Microplate Reader precisely after 2 min. Untreated/infected cells were used as baseline control. The inhibitory concentrations of each drug were presented as a percentage of OD value of the control cells. For each assay run, data points were collected in triplicate.

[1] = PK study: DTG in serum by HPLC-MS; assay type: in vivo, mice; settings: mouse, serum, iv, single i.v. injection of free DTG 5 mg/kg, one-compartment model
Method: Five (5) mg/kg DTG, or hEB-DTG containing equivalent amount of DTG were i.v. injected into mice. After 1, 4, 12, 24 or 48 h, serum and LNs were collected. Samples were homogenized and vortex in 1 mL mixture of water and methanol (1/1, v/v), and then another 1 mL mixture of methanol and acetonitrile (1/1, v/v) was added for extraction. After centrifugation at 12,500 g for 10 min, the supernatants were collected for measurement under HPLC-MS with a previously reported method. For hydrolysis of the ester bond in hEB-DTG to release free DTG, the biological samples suspension mentioned above were incubated in 300 mg/mL guanidine hydrochloride solution at 80 °C for 24 h before extraction.

TZM-bl cells = assay: Cell viability assay (CellTiter-Glo 2.0); assay type: cell-based; settings: 48 h
Method: DTG and hEB-DTG prodrug cytotoxicity was measured at different concentrations against TZM-bl reporter cell line in the presence or absence of HIV-WT virus using the CellTiter-Glo™ 2.0 Assay (Promega, WI, USA) according to the manufacturer’s protocol. TZM-bl cells were seeded in the 96-well white plate at a density of 1 × 10^4 cells/well, and after 24 h, the cells were infected with HIV-WT virus and treated with DTG and hEB-DTG in a concentration range (diluted 1:100) from 3 × 10^−1 mg/mL to 3 × 10^−15 mg/mL. After 48 h, cells were subjected to CellTiter-Glo™ 2.0 Assay (Promega). The CellTiter-Glo™ 2.0 Reagent was equilibrated to room temperature and gently mixed. 100 μL of CellTiter-Glo™ 2.0 Reagent was added to each well containing 100 μL of cells in the medium. Contents were shaken in an orbital shaker for 2 min and incubated at room temperature for precisely 10 min, and then luminescence was measured with a Varioskan LUX Multimode Microplate Reader. Untreated/infected cells were used as a baseline control. Viability of cells was presented as a percentage of OD values of the control cells. For each assay run, data points were collected in triplicate.

BSA = BSA (Bos taurus, UniProt P02769); assay: Gel retardation study with BSA; assay type: binding, bovine; settings: in words
Method: Twenty (20) μg EB, hEB, hEB-platin, or hEB-DTG were mixed with or without various amounts of BSA, globulin, fibrinogen or FBS in 200 μL saline water, then 40 μL of the mixed solution were loaded to 1.5 % agarose gel and run under 120 V for 30 min.

BSA, sequence (P02769 25-607): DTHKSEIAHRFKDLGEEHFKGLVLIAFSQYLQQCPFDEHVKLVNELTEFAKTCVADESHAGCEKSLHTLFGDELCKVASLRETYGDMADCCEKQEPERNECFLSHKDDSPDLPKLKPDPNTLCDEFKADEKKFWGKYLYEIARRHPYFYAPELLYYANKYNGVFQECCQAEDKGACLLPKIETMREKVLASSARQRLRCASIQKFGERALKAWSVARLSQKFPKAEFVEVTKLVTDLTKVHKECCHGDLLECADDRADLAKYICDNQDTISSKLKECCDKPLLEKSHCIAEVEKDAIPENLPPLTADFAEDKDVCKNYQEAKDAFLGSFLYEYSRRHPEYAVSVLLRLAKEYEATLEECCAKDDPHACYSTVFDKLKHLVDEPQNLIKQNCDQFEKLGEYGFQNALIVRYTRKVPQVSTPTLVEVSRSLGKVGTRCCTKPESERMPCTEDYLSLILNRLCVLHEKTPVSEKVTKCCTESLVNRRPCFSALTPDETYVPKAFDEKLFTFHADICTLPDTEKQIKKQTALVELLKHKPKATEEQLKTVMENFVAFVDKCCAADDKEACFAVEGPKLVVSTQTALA

C[C@@H]1CCO[C@H]2Cn3cc(C(=O)NCc4ccc(F)cc4F)c(=O)c(O)c3C(=O)N12 [DTG, dolutegravir]
solubility (Aqueous solubility): 40 µg/mL (≈ 95.4 µM)
concentrations that potently inhibited HIV-WT replication (HIV-WT virus): ≥ 10 ng/mL
clearance ([1]; read-out: CL, free DTG in serum (converted)): 0.00411 mL/min
half-life ([1]; read-out: t1/2, free DTG in serum (converted)): 3.61 h
concentrations above which cell viability began to decline (TZM-bl cells): exceeded 1 μg/mL
concentrations with minimal cytotoxicity (TZM-bl cells): below 100 ng/mL

Cc1cc(-c2ccc(/N=N/c3ccc4c(S(=O)(=O)O)cc(S(=O)(=O)O)c(N)c4c3O)c(C)c2)ccc1N [hEB, half-truncated Evans Blue]
binding affinity for BSA (BSA): retained strong binding affinity
